Measured values published in ChEMBL document CHEMBL1201862, “PubChem BioAssay data set” (2004).
Calls of active or inactive are those of the source.

What was measured:
[1] = molecular target: Genome polyprotein (dengue virus type 2, UniProt P29990); assay: flavivirus cap methylation enzyme inhibition – biochemical, confirmation dose response, primary screen (AID 588689); type: functional
[2] = molecular target: T1, Histone-lysine N-methyltransferase NSD2 (Homo sapiens, UniProt O96028); type: biochemical
T1 sequence (O96028 whole entry): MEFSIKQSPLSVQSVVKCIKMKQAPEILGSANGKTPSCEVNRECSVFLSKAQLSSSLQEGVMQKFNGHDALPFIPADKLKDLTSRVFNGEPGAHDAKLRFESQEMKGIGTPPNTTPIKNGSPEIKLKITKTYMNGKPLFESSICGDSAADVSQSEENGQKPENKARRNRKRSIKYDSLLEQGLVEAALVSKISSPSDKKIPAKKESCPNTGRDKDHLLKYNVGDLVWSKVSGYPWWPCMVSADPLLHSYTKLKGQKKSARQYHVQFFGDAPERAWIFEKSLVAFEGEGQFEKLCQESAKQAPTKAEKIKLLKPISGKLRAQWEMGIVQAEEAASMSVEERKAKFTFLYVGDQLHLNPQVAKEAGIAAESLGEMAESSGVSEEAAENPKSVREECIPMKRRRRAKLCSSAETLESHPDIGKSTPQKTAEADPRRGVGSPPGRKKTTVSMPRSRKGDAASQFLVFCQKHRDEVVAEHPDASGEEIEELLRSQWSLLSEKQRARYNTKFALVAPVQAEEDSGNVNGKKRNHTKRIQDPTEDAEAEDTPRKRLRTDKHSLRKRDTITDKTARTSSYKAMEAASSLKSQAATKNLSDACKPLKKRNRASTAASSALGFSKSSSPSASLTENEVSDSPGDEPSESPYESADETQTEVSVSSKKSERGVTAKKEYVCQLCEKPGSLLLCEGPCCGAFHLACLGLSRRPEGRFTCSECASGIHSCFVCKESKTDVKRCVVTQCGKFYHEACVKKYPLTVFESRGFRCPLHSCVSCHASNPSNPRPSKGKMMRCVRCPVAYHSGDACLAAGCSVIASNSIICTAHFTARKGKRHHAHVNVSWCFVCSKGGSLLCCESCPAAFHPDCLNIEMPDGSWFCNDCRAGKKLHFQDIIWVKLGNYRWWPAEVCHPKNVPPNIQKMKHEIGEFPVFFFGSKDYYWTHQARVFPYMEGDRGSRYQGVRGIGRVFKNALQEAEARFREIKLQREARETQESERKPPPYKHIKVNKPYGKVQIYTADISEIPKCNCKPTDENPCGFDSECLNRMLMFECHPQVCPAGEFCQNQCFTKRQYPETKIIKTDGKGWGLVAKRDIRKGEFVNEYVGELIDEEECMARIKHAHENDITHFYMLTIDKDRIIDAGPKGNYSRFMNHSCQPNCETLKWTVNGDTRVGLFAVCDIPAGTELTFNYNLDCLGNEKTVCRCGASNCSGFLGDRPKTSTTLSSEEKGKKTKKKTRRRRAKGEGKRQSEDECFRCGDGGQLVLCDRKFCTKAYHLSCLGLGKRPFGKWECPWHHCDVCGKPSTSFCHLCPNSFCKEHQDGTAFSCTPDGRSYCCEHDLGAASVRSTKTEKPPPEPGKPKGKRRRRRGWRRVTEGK

[3] = molecular target: T2, Tyrosyl-DNA phosphodiesterase 2 (Homo sapiens, UniProt O95551); assay: potency against TDP2 phosphodiesterase activity – biochemical, epi absorbance, IC50, dose response (AID 743297)
T2 sequence (O95551 whole entry): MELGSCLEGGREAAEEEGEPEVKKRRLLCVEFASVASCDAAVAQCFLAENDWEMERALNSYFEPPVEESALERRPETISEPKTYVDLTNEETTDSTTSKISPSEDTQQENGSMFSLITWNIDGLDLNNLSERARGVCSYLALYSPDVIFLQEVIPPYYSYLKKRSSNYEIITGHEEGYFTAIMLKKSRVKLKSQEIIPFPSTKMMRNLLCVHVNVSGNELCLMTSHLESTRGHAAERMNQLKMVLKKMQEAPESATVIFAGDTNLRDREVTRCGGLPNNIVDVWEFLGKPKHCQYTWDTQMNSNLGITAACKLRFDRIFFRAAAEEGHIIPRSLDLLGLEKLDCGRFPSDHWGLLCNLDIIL

[4] = molecular target: T3, Zinc finger protein mex-5 (Caenorhabditis elegans, UniProt Q9XUB2); assay: potency of MEX-5 RNA-binding blockers – biochemical, C. elegans, fluorescence polarization, dose response (AID 1960)
T3 sequence (Q9XUB2 whole entry): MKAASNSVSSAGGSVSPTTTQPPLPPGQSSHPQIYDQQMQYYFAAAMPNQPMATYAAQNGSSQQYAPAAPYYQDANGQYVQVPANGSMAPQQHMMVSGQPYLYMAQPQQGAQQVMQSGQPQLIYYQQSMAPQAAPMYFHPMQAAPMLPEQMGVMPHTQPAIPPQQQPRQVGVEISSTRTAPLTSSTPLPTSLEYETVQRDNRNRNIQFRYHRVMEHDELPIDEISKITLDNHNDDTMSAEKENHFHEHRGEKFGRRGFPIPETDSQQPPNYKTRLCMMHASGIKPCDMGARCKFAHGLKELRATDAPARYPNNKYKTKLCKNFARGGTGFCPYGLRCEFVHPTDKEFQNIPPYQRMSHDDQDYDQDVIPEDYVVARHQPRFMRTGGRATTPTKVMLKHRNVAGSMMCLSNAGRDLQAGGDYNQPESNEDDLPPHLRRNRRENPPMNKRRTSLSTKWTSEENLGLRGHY

[5] = mitochondrial function rescue without frataxin homolog – Friedreich's ataxia, plus single-dose screen, dose response (AID 1465); type: functional;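 note: yeast depleted of Yfh1p frataxin homolog grown on glycerol needing respiration; WST-1 tetrazolium dye reduction as measure of cellular dehydrogenase metabolic activity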
[6] = molecular target: Nonstructural protein 1 (Influenza A virus, UniProt Q194T2); type: functional, Influenza A virus (A/California/07/2009(H1N1))
Chain of Nonstructural protein 1 (Q194T2 whole entry): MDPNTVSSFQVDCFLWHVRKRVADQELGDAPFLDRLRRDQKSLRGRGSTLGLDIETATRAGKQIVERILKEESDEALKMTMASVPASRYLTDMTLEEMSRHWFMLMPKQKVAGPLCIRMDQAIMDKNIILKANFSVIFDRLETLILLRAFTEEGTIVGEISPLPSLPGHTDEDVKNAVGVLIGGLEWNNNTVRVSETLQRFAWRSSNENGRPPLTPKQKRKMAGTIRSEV

[7] = molecular target: T4, Endoribonuclease toxin MazF (Escherichia coli K-12, UniProt P0AE70); assay: activation of MazEF endoribonuclease cleavage – biochemical, fluorescence, single-stranded RNA substrate, uHTS hits, dose response (AID 588481); type: functional
T4 sequence (P0AE70 whole entry): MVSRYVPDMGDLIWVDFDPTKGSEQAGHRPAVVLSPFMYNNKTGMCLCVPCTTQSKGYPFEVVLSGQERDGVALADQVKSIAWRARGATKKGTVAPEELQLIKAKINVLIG

[8] = molecular target: T4, Endoribonuclease toxin MazF; assay: substrate-only fluorescence increase artefacts – biochemical, single-stranded RNase substrate, counter-screen for MazEF activator project, dose response (AID 588502); type: functional

Chain of Genome polyprotein (P29990 2492-3391 limits assumed): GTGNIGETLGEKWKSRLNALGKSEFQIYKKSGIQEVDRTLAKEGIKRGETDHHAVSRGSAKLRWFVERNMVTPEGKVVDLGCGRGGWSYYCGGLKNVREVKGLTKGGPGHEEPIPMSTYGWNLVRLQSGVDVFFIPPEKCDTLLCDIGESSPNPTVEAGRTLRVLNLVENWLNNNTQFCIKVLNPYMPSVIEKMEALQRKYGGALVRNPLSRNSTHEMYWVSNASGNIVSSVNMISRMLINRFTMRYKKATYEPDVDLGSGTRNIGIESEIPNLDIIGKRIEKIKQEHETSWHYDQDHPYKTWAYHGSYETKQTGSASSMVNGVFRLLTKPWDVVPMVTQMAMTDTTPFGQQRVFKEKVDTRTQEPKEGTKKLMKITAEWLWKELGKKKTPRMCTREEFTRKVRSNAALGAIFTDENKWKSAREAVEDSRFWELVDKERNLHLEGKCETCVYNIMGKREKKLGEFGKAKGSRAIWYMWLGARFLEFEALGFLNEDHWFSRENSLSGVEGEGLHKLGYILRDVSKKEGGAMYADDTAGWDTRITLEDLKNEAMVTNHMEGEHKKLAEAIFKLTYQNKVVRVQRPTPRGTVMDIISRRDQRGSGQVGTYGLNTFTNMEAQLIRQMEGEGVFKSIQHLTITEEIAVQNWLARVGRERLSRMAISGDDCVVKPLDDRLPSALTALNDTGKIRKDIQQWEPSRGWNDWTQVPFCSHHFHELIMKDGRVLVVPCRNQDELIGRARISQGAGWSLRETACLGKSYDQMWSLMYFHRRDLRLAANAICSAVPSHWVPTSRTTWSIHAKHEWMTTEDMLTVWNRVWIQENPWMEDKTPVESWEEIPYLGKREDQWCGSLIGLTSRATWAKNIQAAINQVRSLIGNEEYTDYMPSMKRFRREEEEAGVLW

Structure (SMILES): COC(=O)c1ccc(-c2ccc(C(c3c(C)[nH][nH]c3=O)c3c(C)[nH][nH]c3=O)o2)cc1
- IC50 [1]: > 100 µM (active)
- AC50 [2]: 17.8 µM (active)
- IC50 [3]: 74.3 µM (inactive)

Structure (SMILES): Oc1ccc(/C=N/NC(=S)Nc2cccnc2)c(O)c1O
- EC50 [4]: 0.086 µM (active)
- EC50 [5]: > 100 µM (active)
- IC50 [6]: 3.58 µM (active)
- EC50 [7]: > 99 µM (inactive)
- EC50 [8]: > 99 µM (inactive)
- IC50 [1]: 24.4 µM (active)
